Measured values: publication PMC9032693, “Biological Evaluation of New Thienopyridinium and Thienopyrimidinium Derivatives as Human Choline Kinase Inhibitors” (Pharmaceutics, 2022)

Legend:
HL-60 = assay: Antiproliferative activity, resazurin assay, 72 h; format: cell-based, human
Protocol: (§1) Human cervix carcinoma (HeLa), Non-small lung adenocarcinoma (A549), Colon adenocarcinoma (HT29), and human triple negative breast cancer (MDA-MB-231) were cultured in Dulbecco’s modified Eagle’s media (DMEM). B-acute lymphoblastic leukemia (RS4;11 and SEM), T-acute lymphoblastic leukemia (Jurkat), and human promyelocytic cells (HL-60), were cultured in RPMI-1640 medium. Both media were purchased from Gibco, Life Technologies (Milan, Italy) and supplemented with 10% Fetal Bovine Serum (FBS, Invitrogen, Milan, Italy,). Every six months, each cell line was checked for the presence of mycoplasma by RT-PCR.
(§2) Stock solutions (10 mM) of the different compounds were made in DMSO. Cancer cells were seeded in tissue-treated, flat bottom, 384-well plates (Corning) according to their optimal density, (A549 1000 cells/wells; MDA-MB-231, HeLa and HT-29 2000 cells/well and finally Jurkat, HL-60 SEM and RS4;11 20.000 cells/well) in 27 µL of complete medium per well.
(§3) The day after cell seeding and immediately before cell treatment, 10 mM stock solutions of the compounds were pre-diluted to a […] concentration in 250 µL of Hank’s in a 96-well plate (Corning). Subsequent 1:5 dilutions were carried out using a microlab STAR 96-CORE liquid handling system (Hamilton), a robotized liquid handling tool that was employed for all steps, from cell seeding to drug dilution and cell treatment to ensure high reproducibility while reducing time for large screening execution. This pre-dilution step was necessary to avoid DMSO-related cytotoxicity and compound precipitation in the cell culture medium. In every case, DMSO concentration never exceeded 0.1%.
(§4) Positive (Bortezomib 1 µM) and negative (0.1% DMSO) controls were included in all the screened plates to allow for monitoring the Z’ factor throughout the entire screening. Cells were treated with 3 µL of the previously made dilutions; thus, generating a 6-point 5-fold dose–response curve starting from 10 µM. Within a plate, each drug concentration was tested in duplicate in two independent experiments for each compound.
(§5) Treated cells were then placed inside the CO2 incubator for 72 h at 37 °C. Cell viability was assessed by resazurin assay, in which 3 µL of resazurin per well were added using the previously described automated platform. Plates were placed in the incubator at 37 °C for 2 h, and then the fluorescence of each plate was read using a Spark 10 M multimode microplate reader (Tecan Group Ltd., Mannedorf, Switzerland) with 535 nm excitation wavelength and 600 nm emission wavelength.

HeLa = assay: Antiproliferative activity, resazurin assay, 72 h; format: cell-based, human
Protocol: as §1, §2, §3, §4, §5

SEM cells = assay: Antiproliferative activity, resazurin assay, 72 h; format: cell-based, human
Protocol: as §1, §2, §3, §4, §5

A549 = assay: Antiproliferative activity, resazurin assay, 72 h; format: cell-based, human
Protocol: as §1, §2, §3, §4, §5

HT29 = assay: Antiproliferative activity, resazurin assay, 72 h; format: cell-based, human
Protocol: as §1, §2, §3, §4, §5

MDA-MB-231 = assay: Antiproliferative activity, resazurin assay, 72 h; format: cell-based, human
Protocol: as §1, §2, §3, §4, §5

Jurkat = assay: Antiproliferative activity, resazurin assay, 72 h; format: cell-based, human
Protocol: as §1, §2, §3, §4, §5

RS 4;11 = assay: Antiproliferative activity, resazurin assay, 72 h; format: cell-based, human
Protocol: as §1, §2, §3, §4, §5

CKα1 = molecular target: T1, CKα1 (Homo sapiens, UniProt P35790); assay: Choline kinase assay ([methyl-14C]choline into PCho, purified enzyme); format: biochemical; conditions: for IC50: concentration required to inhibit CKα1 enzyme by 50%; for % Inhibition at 10 µM: purified CKα1, inhibitor 10 µM; for % Inhibition at 10 µM / % Inhibition at 30 µM: end-point assay; for % Inhibition at 30 µM: purified CKα1, inhibitor 30 µM
T1 construct: an N-terminally His-tagged truncated form of CKα1 (Δ75–457) was cloned into a pET-28a vector; His tag (N); made in house; host or cells: E. coli BL21 (DE3) Star
T1 sequence (P35790 75-457): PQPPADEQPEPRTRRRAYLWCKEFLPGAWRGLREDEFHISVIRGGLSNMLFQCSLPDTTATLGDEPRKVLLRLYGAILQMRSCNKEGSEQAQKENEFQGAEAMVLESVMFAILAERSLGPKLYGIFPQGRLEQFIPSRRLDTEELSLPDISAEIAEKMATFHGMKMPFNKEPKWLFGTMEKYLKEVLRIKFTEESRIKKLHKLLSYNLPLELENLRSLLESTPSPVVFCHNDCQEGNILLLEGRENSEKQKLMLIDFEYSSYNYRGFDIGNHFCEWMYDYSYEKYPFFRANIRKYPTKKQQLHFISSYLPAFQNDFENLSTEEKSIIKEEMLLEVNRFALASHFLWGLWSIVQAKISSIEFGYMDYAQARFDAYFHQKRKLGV
Protocol: The protein was produced and purified as previously described. Briefly, an N-terminally His-tagged truncated form of CKα1 (Δ75–457) was cloned into a pET-28a vector and expressed at 37 °C in E. coli BL21 (DE3) Star cells using 1 mM isopropyl β-D-1-thiogalactopyranoside (IPTG). After centrifugation, the cellular pellet was resuspended in 50 mM Tris-HCl pH 7.5, 500 mM NaCl, 0.2 mM phenylmethylsulphonyl fluoride (PMSF), DNase, and 0.5 mM β-mercaptoethanol, sonicated and subjected to a two-step purification procedure to isolate the target enzyme. […] Protein elution was completed using buffer A + 400 mM imidazole. A second size-exclusion chromatography step was then carried out to achieve complete purity. To this end, we used a HiPrep 26/60 Sephacryl 100 HR column (GE Healthcare, Little Chalfont, Buckinghamshire, UK) and a 20 mM Tris/HCl pH 7.5, 150 mM NaCl running buffer.
To study the effect of the compounds on CKα, an in vitro enzymatic assay was performed using the purified enzyme as previously reported in [19, 28, 29]. Briefly, the incorporation of ^14C from [methyl-^14C]choline into PCho in either the absence (control) or presence of different inhibitors at varying concentrations was used to determine the CK activity. The reaction mixture included 20 ng of purified CKα1, 10 mM ATP, 10 mM MgCl2, 100 mM Tris-HCl pH 8.5, and increasing concentrations of compounds. The mixture was preincubated at 37 °C for 5 min. Then, [methyl-^14C]choline chloride (1 mM, 4500 dpm/nmol) was added and the reaction was left to proceed for 10 min at 37 °C. The assay was stopped by immersing the reaction tubes in boiling water. PCho was separated by Thin Layer Chromatography using methanol/0.6% NaCl/28% NH4OH in water (50:50:5, v/v/v) as solvent. The radioactivity associated into PCho was determined in a Beckman 6000-TA (Madrid, Spain) liquid scintillation counter. The 50% inhibitory concentrations (IC50 values) were determined from the % enzyme activity at different concentrations of synthetic inhibitors relative to the control by using a sigmoidal dose–response curve (ED50plus v1.0 software).

Structure (SMILES) | GI50 (HL-60) [µM] | GI50 (HeLa) [µM] | GI50 (SEM cells) [µM] | GI50 (A549) [µM] | GI50 (HT29) [µM] | GI50 (MDA-MB-231) [µM] | GI50 (Jurkat) [µM] | GI50 (RS 4;11) [µM] | IC50 (CKα1) [µM] | % Inhibition at 10 µM (CKα1) [%] | % Inhibition at 30 µM (CKα1) [%]
[Br-].[Br-].c1cc2c(s1)c(N1CCCCC1)nc[n+]2Cc1ccc(CCCCc2ccc(C[n+]3cnc(N4CCCCC4)c4sccc43)cc2)cc1 [Fa-33] | 0.14 ± 0.01 | 0.28 ± 0.02 | 1.37 ± 0.07 | 0.16 ± 0.01 | 1.07 ± 0.1 | 0.41 ± 0.02 | 1.46 ± 0.1 | 0.76 ± 0.1 | 1.67 ± 0.08 | 98.90 | 97.80
[Br-].[Br-].c1cc2c(s1)c(N1CCCC1)nc[n+]2Cc1ccc(CCCCc2ccc(C[n+]3cnc(N4CCCC4)c4sccc43)cc2)cc1 [Ff-7] | 0.4 ± 0.05 | 0.87 ± 0.05 | 2.93 ± 0.2 | 0.21 ± 0.03 | 1.48 ± 0.04 | 0.47 ± 0.04 | 8.61 ± 1.3 | 2.33 ± 0.3 | 8.57 ± 2.8 | 89.95 | 95.88
[Br-].[Br-].c1cc2c(N3CCCC3)nc[n+](Cc3ccc(CCCCc4ccc(C[n+]5cnc(N6CCCC6)c6ccsc65)cc4)cc3)c2s1 [Ff-3] | 0.21 ± 0.03 | 0.63 ± 0.02 | 3.7 ± 0.4 | 0.21 ± 0.02 | 1.33 ± 0.01 | 0.36 ± 0.03 | 7.54 ± 1.5 | 2.05 ± 0.1 | ≥ 5 | 74.17 | 80.09
[Br-].[Br-].c1cc2c(s1)c(N1CCCC1)cc[n+]2Cc1ccc(OCCOc2ccc(C[n+]3ccc(N4CCCC4)c4sccc43)cc2)cc1 [Ff-2] | 2.14 ± 0.1 | 3.26 ± 0.4 | > 10 | 1.06 ± 0.1 | > 10 | 1.43 ± 0.2 | > 10 | > 10 |  | 77.41 | 82.77
CN(c1ccc(Cl)cc1)c1nc[n+](Cc2ccc(-c3ccc(C[n+]4cnc(N(C)c5ccc(Cl)cc5)c5ccsc54)cc3)cc2)c2sccc12 [Fp-8] | 0.9 ± 0.08 | 1.77 ± 0.1 | > 10 | 0.16 ± 0.01 | 3.93 ± 0.5 | 0.83 ± 0.04 | > 10 | 3.38 ± 0.05 |  |  | 
[Br-].[Br-].c1cc2c(N3CCCCC3)nc[n+](Cc3ccc(CCc4ccc(C[n+]5cnc(N6CCCCC6)c6ccsc65)cc4)cc3)c2s1 [Fg-31] | 0.76 ± 0.05 | 1.4 ± 0.02 | > 10 | 1.17 ± 0.01 | 4.5 ± 0.4 | 1.09 ± 0.1 | > 10 | 7.2 ± 1 | ≥ 10 | 51.54 | 74.39
[Br-].[Br-].c1cc2c(N3CCCC3)nc[n+](Cc3ccc(OCCOc4ccc(C[n+]5cnc(N6CCCC6)c6ccsc65)cc4)cc3)c2s1 [Ff-4] | 0.79 ± 0.05 | > 10 | > 10 | 0.23 ± 0.03 | > 10 | 0.72 ± 0.03 | > 10 | > 10 | ≥ 10 | 55.23 | 77.28
